Measurements reported in patent publication US6384083B1, “USE OF ADAMANTANE AMINES OR STRUCTURALLY SIMILAR COMPOUNDS FOR COMBATING BORNA DISEASE VIRUS AND FOR THE PREVENTION AND TREATMENT OF AFFECTIVE DISEASES AND OTHER DISORDERS ASSOCIATED WITH BDV INFECTIONS IN HUMANS AND ANIMALS” (priority 1996, dated 2002).
Counter-ions that a name gives are not always drawn.

Experiments:
influenza A strains = settings: cited from earlier work
influenza B strains = settings: cited from earlier work
[1] = test system: human Borna disease virus strain BDV-Hu-H1; assay: Inhibition of BDV infection of young rabbit brain cells after one-hour pre-treatment; assay type: cell-based, Borna disease virus (human strain) in rabbit brain cells; settings: one-hour pre-treatment before infection, 100±10 ffu/mL BDV-Hu-H1, read-out: concentration that inhibits the infection of rabbit brain cells with human BDV to the extent of 50%
Description: (§1) Young rabbit brain cells were treated with amantadine sulfate and, in a comparison experiment, with meso-inositol. After this treatment, both samples were treated for 1 hour with a human Borna disease virus strain (100±10 ffu/mL with BDV-Hu-H1 (regarding this strain, refer also to L. Bode, et al., Mol. Psychiatry 1996, 1(3), 200-212)).
(§2) The highest in vitro dose, which permits normal, unimpaired cell growth, is 1.2 μg/mL, relative to the cell system.

rabbit brain cells = assay: Cell growth tolerance in the rabbit brain cell system; assay type: cell-based; settings: relative to the cell system
Description: as §1, §2

[2] = test system: human oligodendroglia cells (OL cells); assay: Cell growth of OL cells under amantadine sulfate; settings: 1.2 μg/mL, whole period observed
Description: (§3) On the other side, freshly infected OL cells were treated with the same drug dose for 24 hours and then for a further 6 days after the infection.

BDV-Hu-H1 = assay: Inhibition of BDV replication in human oligodendroglia (OL) cells; settings: already infected OL cells, 1.2 μg/mL, 6 days
Description: as §3

[3] = test system: activated BDV infection / depression; assay: Treatment of a BDV-infected patient with bipolar disease (severe depressive episode)
[4] = cited from earlier work

SMILES: NC12CC3CC(CC(C3)C1)C2 [amantadine hydrochloride]
- push back of virus production (influenza A strains): by a power of 10
- sensitivity of the virus (influenza B strains): not sensitive

SMILES: NC12CC3CC(CC(C3)C1)C2 [amantadine sulfate]
- IC50 [1]: 0.019 µg/mL
- highest in vitro dose which permits normal, unimpaired cell growth (rabbit brain cells): 1.2 µg/mL
- effect on cell growth [2]: practically not affected
- reduction of the number of infectious viruses (factor) (BDV-Hu-H1): more than 10,000
- Borna virus activity (protein expression in the blood leucocytes) ([3]; after the 11th day of treatment and also 5 months later): could no longer be detected
- course of depression under treatment ([3]; from the 8th day to the 11th day, 50 to 200 mg daily): improved dramatically
- day of treatment after which discharge from hospital was possible ([3]; patient): 15 days
- undesirable side effects ([3]; patient, until now): no undesirable side effects

SMILES: NC12CC3CC(CC(C3)C1)C2 [amantadine, 1-adamantane amine]
- half-lifetime ([4]; in vivo): approximately 15 hours
- absorption after oral administration ([4]; oral): absorbed almost completely
- depression-free time without hypomanic rebound effect ([3]; patient under therapy): 5 months

SMILES: CC(N)C12CC3CC(CC(C3)C1)C2 (centres unmarked) [rimantadine, 1-adamantyl-(1-amino) ethane]
- excretion / metabolism ([4]; in vivo): metabolized in the liver
